{"source": "patent US20230125249A1", "about": "(FIRMENICH SA, priority 2017, published 2023)", "key": {"[1]": {"molecular_target": "T1, OR5AN1 olfactory receptor (Homo sapiens, UniProt Q8NGI8)", "T1 construct": "expressed in transfected cells", "T1 sequence (Q8NGI8 1-311)": "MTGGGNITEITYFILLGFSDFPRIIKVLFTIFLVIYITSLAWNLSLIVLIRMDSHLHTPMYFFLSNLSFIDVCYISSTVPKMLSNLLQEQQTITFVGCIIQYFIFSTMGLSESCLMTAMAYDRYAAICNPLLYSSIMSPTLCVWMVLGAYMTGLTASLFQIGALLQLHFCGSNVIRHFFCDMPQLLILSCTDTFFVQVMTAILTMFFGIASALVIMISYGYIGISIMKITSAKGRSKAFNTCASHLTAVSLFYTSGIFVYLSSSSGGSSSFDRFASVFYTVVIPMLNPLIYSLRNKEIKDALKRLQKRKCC", "assay": "Allosteric EC50 shift analysis: MUSCENONE® dose response with serial concentrations of enhancer", "format": "cell-based", "description": "(§1) The level of enhancement of the OR5AN1 olfactory receptor activation was evaluated at distinct concentrations of the enhancer. […] The curves were obtained by applying the simplified Allosteric EC50 shift effect equation (available in Prism5, v. 5.02) derived from the ternary complex interaction model."}, "[2]": {"molecular_target": "T1, OR5AN1 olfactory receptor", "assay": "Dose-response of individual candidate alone (intrinsic agonist activity) on OR5AN1", "format": "cell-based", "description": "15 candidates, marked as “enhancement” in Table 2 were identified. Strikingly, 80% of these putative enhancers (12/15) belonged to the same class of chemicals: unsaturated aliphatic aldehydes. Next, two parallel dose-response experiments to confirm the true enhancement properties of the potential candidates were performed. First, a dose-response of each individual candidate was performed to determine if it was an agonist by itself. Second, a MUSCENONE® dose-response curve in the presence and absence of a 250 μM concentration of the putative modulator was assessed for EC50 shifts."}, "OR5AN1 allele 4": {"test_system": "OR5AN1 allele 4", "assay": "Cell based assay of hypofunctional OR5AN1 allele 4 with and without enhancer", "design": "species or system human", "conditions": "allele 4, presence vs absence of enhancer"}, "Olfr1440": {"molecular_target": "T2, Olfr1440 (Mus musculus, UniProt Q8VFV4)", "T2 construct": "expressed in transfected cells", "T2 sequence (Q8VFV4 1-315)": "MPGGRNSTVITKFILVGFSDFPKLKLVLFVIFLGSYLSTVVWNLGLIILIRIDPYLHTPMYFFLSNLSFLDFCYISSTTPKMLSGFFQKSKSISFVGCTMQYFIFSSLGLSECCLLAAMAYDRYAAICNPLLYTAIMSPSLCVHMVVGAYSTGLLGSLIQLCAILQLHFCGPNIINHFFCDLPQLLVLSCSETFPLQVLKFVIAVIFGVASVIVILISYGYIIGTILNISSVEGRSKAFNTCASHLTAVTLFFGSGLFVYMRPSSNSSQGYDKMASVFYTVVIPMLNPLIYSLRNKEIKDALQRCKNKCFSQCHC", "assay": "Control enhancement experiment on mouse ortholog receptor", "format": "cell-based", "description": "as §1\nFurthermore and as a control, a similar experiment was performed on the mouse MUSCENONE® responsive odorant receptor Olfr1440, the ortholog of OR5AN1."}, "[3]": {"molecular_target": "T1, OR5AN1 olfactory receptor", "assay": "MUSCENONE®/musk dose-response on OR5AN1 in presence and absence of putative modulator (EC50 shift, span)", "format": "cell-based", "conditions": "enhancer at 250 μM, FIG. 3A", "description": "Next, two parallel dose-response experiments to confirm the true enhancement properties of the potential candidates were performed. First, a dose-response of each individual candidate was performed to determine if it was an agonist by itself.\nThe resulting enhancement was quantified by means of EC50-fold shift (potency increase) and the efficacy span ratio (efficacy increase).\nThe EC50-fold shift was obtained by dividing the EC50 of MUSCENONE® +compound by the reference EC50 MUSCENONE® alone. The span ratio was obtained by dividing the span of MUSCENONE®+compound by the reference span of MUSCENONE® alone."}, "OR5AN1 allele 3": {"test_system": "OR5AN1 allele 3", "assay": "Cell based assay of hypofunctional OR5AN1 allele 3 with and without enhancer", "design": "species or system human", "conditions": "allele 3, presence vs absence of enhancer"}}, "data": [{"smiles": "CCCCCCCCCC/C=C/C=O", "note": "[tridecylenic aldehyde]", "values": [{"measurement": "α (cooperativity factor)", "setting": "[1]; Allosteric EC50 shift model, enhancer 0 to 1 mM", "result": 15.7}, {"measurement": "Kb", "setting": "[1]; read-out: KB (equilibrium dissociation constant)", "result": 259, "unit": "µM"}, {"measurement": "Activation of OR5AN1 by the compound by itself", "setting": "[2]", "result": "did not activate the OR5AN1 olfactory receptor by itself"}, {"measurement": "Activation by compound alone relative to the MUSCENONE® activation window", "setting": "[2]; above approximately 100 μM", "result": "less than 8%"}, {"measurement": "Activity span-ratio", "setting": "OR5AN1 allele 4", "result": 2.16}, {"measurement": "Effect on Olfr1440 MUSCENONE®-induced activation", "setting": "Olfr1440", "result": "slight inhibition"}, {"measurement": "Maximal activation level (span) of MUSCENONE®", "setting": "[3]", "result": "increased span"}, {"measurement": "Activity span-ratio", "setting": "OR5AN1 allele 3", "result": 2.02}]}]}
